From the supplement of paper PMC8967900 come the findings set out here.
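Further: ALL cell lines in 384-well plates, five doses spanning 10,000-fold, each plate scaled between vehicle and 100 µmol/L benzalkonium chloride controls, sDSS an adapted area-under-curve metric.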

One test relates to HPB-ALL. The test is described as follows: selective drug sensitivity score (sDSS, relative to normal bone marrow) (sDSS (score)); higher = more potent and effective on the cell line relative to normal bone marrow cells. The note with it: 72 h.
In the case of `COc1cc(CCc2cc(NC(=O)c3ccc(N4CC(C)NC(C)C4)cc3)n[nH]2)cc(OC)c1` (stereo not drawn) [AZD4547] (top concentration 1000 nM), the “selective drug sensitivity score” value was -0.14.

Take `CN(C)C(=O)c1ccc(S(=O)(=O)c2ccc(NC(=O)[C@@](C)(O)C(F)(F)F)c(Cl)c2)cc1` [AZD7545] (top concentration 10000 nM): the “selective drug sensitivity score” value turned out to be 0.3.

Turning to `COc1cc(C)c(/C=C/C(C)=C/C=C/C(C)=C/C(=O)O)c(C)c1C` [Acitretin] (top concentration 10000 nM), the “selective drug sensitivity score” value is -0.1.

Consider `CCC1(c2ccc(N)cc2)CCC(=O)NC1=O` (stereo not drawn) [Aminoglutethimide] (top concentration 10000 nM), for which the “selective drug sensitivity score” value is 0.4.

Turning to `CNC(=O)c1ccc(N2C(=S)N(c3cnc(C#N)c(C(F)(F)F)c3)C(=O)C23CCC3)cc1F` [Apalutamide] (top concentration 10000 nM), the “selective drug sensitivity score” value worked out at 0.

As to `N#CC1(c2ccc(NC(=O)c3cccnc3NCc3ccncc3)cc2)CCCC1` [Apatinib] (top concentration 10000 nM), the “selective drug sensitivity score” value worked out at 1.

As for `Cc1nc2cccc(N)c2c(=O)n1C1CCC(=O)NC1=O` (stereo not drawn) [Avadomide (CC122)] (top concentration 10000 nM), the “selective drug sensitivity score” value is 0.

For the compound `Nc1nc(Nc2ccc3c(c2)CC[C@@H](N2CCCC2)CC3)nn1-c1cc2c(nn1)-c1ccccc1CCC2` [BGB324] (top concentration 10000 nM), the “selective drug sensitivity score” value is -2.88.

In the case of `CC1(C)C(C(=O)Nc2ccc(S(=O)(=O)c3ccc(NC(=O)C4C(C)(C)C4(C)C)cc3)cc2)C1(C)C` [BRD7116] (top concentration 10000 nM), the “selective drug sensitivity score” value came to 3.26.

`CCS(=O)(=O)N1CC(CC#N)(n2cc(-c3ncnc4[nH]ccc34)cn2)C1` [Baricitinib] (top concentration 2500 nM): the “selective drug sensitivity score” value is -1.94.

The next test concerns KARPAS-45. The description is as above. The note with it: 72 h.
For `CNC(=O)c1ccc(C)c(-n2c(C)cc(OCc3ccc(F)cc3F)c(Br)c2=O)c1` (top concentration 1000 nM), the “selective drug sensitivity score” value was determined as 0.

In the case of `CONC(=O)c1ccccc1Nc1cc(Nc2cc(C)nn2C(C)C)ncc1Cl` (top concentration 1000 nM), the “selective drug sensitivity score” value was -0.94.

As for `CCOc1ccn(-c2ccc(F)cc2)c(=O)c1C(=O)Nc1ccc(Oc2ccnc(N)c2Cl)c(F)c1` (top concentration 2500 nM), the “selective drug sensitivity score” value amounted to 2.2.

Consider `CC[C@@H]1[C@H](F)C(=O)N[C@@H]1COc1nccc2cc(C(N)=O)c(OC)cc12` (top concentration 10000 nM), for which the “selective drug sensitivity score” value was 2.58.

As to `C[C@H]1C[C@@H](n2c(Nc3ccc(OC(F)(F)F)cc3)nc3cc(CCC(=O)O)ccc32)CC(C)(C)C1` (top concentration 10000 nM), the “selective drug sensitivity score” value worked out at 2.76.

For the compound `O=C(NCc1ccncc1)C12CC3CC(C1)CC(c1ccc(Cl)cc1)(C3)C2` (top concentration 50000 nM), the “selective drug sensitivity score” value amounted to 3.28.

As for `O=C(O)c1ccc(CN2CCC(CN[C@@H]3C[C@H]3c3ccccc3)CC2)cc1` (top concentration 100000 nM), the “selective drug sensitivity score” value is -0.32.

For the compound `COc1cc(N2CCN(C)CC2)ccc1Nc1nccc(-c2cn(C)c3cnccc23)n1` [AZ191] (top concentration 10000 nM), the “selective drug sensitivity score” value is 0.98.

`Cc1cc(Nc2nc(N[C@@H](C)c3ncc(F)cn3)ncc2Cl)[nH]n1` [AZD1480] (top concentration 1000 nM): the “selective drug sensitivity score” value was found to be 0.32.

Consider `COc1cc(CCc2cc(NC(=O)c3ccc(N4CC(C)NC(C)C4)cc3)n[nH]2)cc(OC)c1` (stereo not drawn) [AZD4547] (top concentration 1000 nM), for which the “selective drug sensitivity score” value is -0.14.

As to `CN(C)C(=O)c1ccc(S(=O)(=O)c2ccc(NC(=O)[C@@](C)(O)C(F)(F)F)c(Cl)c2)cc1` [AZD7545] (top concentration 10000 nM), the “selective drug sensitivity score” value is 2.9.

As for `COc1cc(C)c(/C=C/C(C)=C/C=C/C(C)=C/C(=O)O)c(C)c1C` [Acitretin] (top concentration 10000 nM), the “selective drug sensitivity score” value came out at 0.2.

Regarding `CCC1(c2ccc(N)cc2)CCC(=O)NC1=O` (stereo not drawn) [Aminoglutethimide] (top concentration 10000 nM), the “selective drug sensitivity score” value stood at 0.

For `CNC(=O)c1ccc(N2C(=S)N(c3cnc(C#N)c(C(F)(F)F)c3)C(=O)C23CCC3)cc1F` [Apalutamide] (top concentration 10000 nM), the “selective drug sensitivity score” value was determined as 0.

For the compound `N#CC1(c2ccc(NC(=O)c3cccnc3NCc3ccncc3)cc2)CCCC1` [Apatinib] (top concentration 10000 nM), the “selective drug sensitivity score” value worked out at 0.

Regarding `Cc1nc2cccc(N)c2c(=O)n1C1CCC(=O)NC1=O` (stereo not drawn) [Avadomide (CC122)] (top concentration 10000 nM), the “selective drug sensitivity score” value was found to be 0.

Turning to `Nc1nc(Nc2ccc3c(c2)CC[C@@H](N2CCCC2)CC3)nn1-c1cc2c(nn1)-c1ccccc1CCC2` [BGB324] (top concentration 10000 nM), the “selective drug sensitivity score” value came to 1.92.

On to `CC1(C)C(C(=O)Nc2ccc(S(=O)(=O)c3ccc(NC(=O)C4C(C)(C)C4(C)C)cc3)cc2)C1(C)C` [BRD7116] (top concentration 10000 nM), for which the “selective drug sensitivity score” value is -0.04.

On to `CCS(=O)(=O)N1CC(CC#N)(n2cc(-c3ncnc4[nH]ccc34)cn2)C1` [Baricitinib] (top concentration 2500 nM), for which the “selective drug sensitivity score” value was -1.94.

The next test concerns KASUMI-10. The description is as above. The note with it: 72 h.
For the compound `CNC(=O)c1ccc(C)c(-n2c(C)cc(OCc3ccc(F)cc3F)c(Br)c2=O)c1` (top concentration 1000 nM), the “selective drug sensitivity score” value is 0.

For the compound `CONC(=O)c1ccccc1Nc1cc(Nc2cc(C)nn2C(C)C)ncc1Cl` (top concentration 1000 nM), the “selective drug sensitivity score” value is -0.94.

On to `CCOc1ccn(-c2ccc(F)cc2)c(=O)c1C(=O)Nc1ccc(Oc2ccnc(N)c2Cl)c(F)c1` (top concentration 2500 nM), for which the “selective drug sensitivity score” value was 2.6.

With `CC[C@@H]1[C@H](F)C(=O)N[C@@H]1COc1nccc2cc(C(N)=O)c(OC)cc12` (top concentration 10000 nM), the “selective drug sensitivity score” value was 3.68.

On to `C[C@H]1C[C@@H](n2c(Nc3ccc(OC(F)(F)F)cc3)nc3cc(CCC(=O)O)ccc32)CC(C)(C)C1` (top concentration 10000 nM), for which the “selective drug sensitivity score” value is -0.14.

Regarding `O=C(NCc1ccncc1)C12CC3CC(C1)CC(c1ccc(Cl)cc1)(C3)C2` (top concentration 50000 nM), the “selective drug sensitivity score” value was 0.98.

With `O=C(O)c1ccc(CN2CCC(CN[C@@H]3C[C@H]3c3ccccc3)CC2)cc1` (top concentration 100000 nM), the “selective drug sensitivity score” value is -0.62.

`COc1cc(N2CCN(C)CC2)ccc1Nc1nccc(-c2cn(C)c3cnccc23)n1` [AZ191] (top concentration 10000 nM): the “selective drug sensitivity score” value is 5.38.

For the compound `Cc1cc(Nc2nc(N[C@@H](C)c3ncc(F)cn3)ncc2Cl)[nH]n1` [AZD1480] (top concentration 1000 nM), the “selective drug sensitivity score” value was -0.48.

As to `COc1cc(CCc2cc(NC(=O)c3ccc(N4CC(C)NC(C)C4)cc3)n[nH]2)cc(OC)c1` (stereo not drawn) [AZD4547] (top concentration 1000 nM), the “selective drug sensitivity score” value is 1.36.

On to `CN(C)C(=O)c1ccc(S(=O)(=O)c2ccc(NC(=O)[C@@](C)(O)C(F)(F)F)c(Cl)c2)cc1` [AZD7545] (top concentration 10000 nM), for which the “selective drug sensitivity score” value was -0.2.

Consider `COc1cc(C)c(/C=C/C(C)=C/C=C/C(C)=C/C(=O)O)c(C)c1C` [Acitretin] (top concentration 10000 nM), for which the “selective drug sensitivity score” value was -1.6.

In the case of `CCC1(c2ccc(N)cc2)CCC(=O)NC1=O` (stereo not drawn) [Aminoglutethimide] (top concentration 10000 nM), the “selective drug sensitivity score” value worked out at 0.

Turning to `CNC(=O)c1ccc(N2C(=S)N(c3cnc(C#N)c(C(F)(F)F)c3)C(=O)C23CCC3)cc1F` [Apalutamide] (top concentration 10000 nM), the “selective drug sensitivity score” value came to 0.

For `N#CC1(c2ccc(NC(=O)c3cccnc3NCc3ccncc3)cc2)CCCC1` [Apatinib] (top concentration 10000 nM), the “selective drug sensitivity score” value was 0.

Regarding `Cc1nc2cccc(N)c2c(=O)n1C1CCC(=O)NC1=O` (stereo not drawn) [Avadomide (CC122)] (top concentration 10000 nM), the “selective drug sensitivity score” value worked out at 2.3.

For the compound `Nc1nc(Nc2ccc3c(c2)CC[C@@H](N2CCCC2)CC3)nn1-c1cc2c(nn1)-c1ccccc1CCC2` [BGB324] (top concentration 10000 nM), the “selective drug sensitivity score” value is 0.32.

On to `CC1(C)C(C(=O)Nc2ccc(S(=O)(=O)c3ccc(NC(=O)C4C(C)(C)C4(C)C)cc3)cc2)C1(C)C` [BRD7116] (top concentration 10000 nM), for which the “selective drug sensitivity score” value was 0.86.

`CCS(=O)(=O)N1CC(CC#N)(n2cc(-c3ncnc4[nH]ccc34)cn2)C1` [Baricitinib] (top concentration 2500 nM): the “selective drug sensitivity score” value was -1.94.
